The subject of assay [1] is carrageenan induced paw edema. The assay can be described thus: Carrageenan induced paw edema. The assay is classed as in vivo, mice. To be noted: 3 hours after carrageenan. In general terms: Carrageenan injected into the paw causes an acute inflammation.
For another assay, the system named is PGE2 secretion. Briefly: Inhibition of PGE2 secretion in LPS activated mouse macrophages (RAW 264.7). The assay is classed as cell-based. The following applies: RAW264.7, LPS activated RAW 264.7 cells, same experimental setup, known anti-inflammatory drugs. Here is the method: The assay reproduces in vitro the true enzymatic activity, the test compounds, up to 10 μM, were preincubated for 5 minutes with purified COX-2, then the natural substrate AA was added and the reaction was allowed to proceed for 2 minutes. HCl was used to stop the enzyme catalysis and saturated stannous chloride was added to stabilize the PGH2 product into PGF2α.
RAW 264.7 macrophages, a mouse cell line (ATCC # TIB 71), were grown in Dulbecco's modified Eagle's medium (DMEM) with 4 mM L-glutamine adjusted to contain 1.5 g/L sodium bicarbonate, 4.5 g/L glucose, and 10% heat inactivated fetal bovine serum. Cells were grown in tissue culture flasks and seeded at appropriate density into 24 wells tissue culture plates. 0.5×10^6 Raw cells in one milliliter were stimulated with 2 μg/ml Lipopolysaccharide E. coli 055:B5 (DIFCO Laboratories). The mouse macrophages were pre-treated for one hour with controls or 10 μM of dexanabinol and its analogs, unless indicated otherwise, and later on activated with LPS.

Assay [2] deals with ConA injured liver (ALT release). Briefly: ALT release from ConA injured liver. The assay is classed as in vivo, mice. The following applies: PRS-211,092 5 mg/kg, FK-506 1 mg/kg. Here is the method:
(§1) Each experimental group contained at least twenty BALB/c inbred female mice (25 g average weight, Harlan, Israel). The negative control group was composed of mice injected with saline instead of ConA. The injection of ConA (Sigma) was done i.v. at the base of the tail at the dose of 15 mg/kg in saline. The treatments were injected i.v. at 5 mg/kg, 30 minutes before ConA injection, unless indicated otherwise. Compounds were dissolved in cremophor:ethanol, further diluted with saline before injection, and vehicle only was included as an internal control. Analysis was performed at predetermined time points following ConA injection.
Impact of treatment was monitored at three levels. First, blood samples (200-400 μl) were collected at predetermined time points after ConA injection, using retro-orbital puncture. After short centrifugation (5000 rpm for 2 min) serum was recovered and stored at −80° C. until further use for determination of cytokines concentrations by ELISA and aminotransferase release from the liver as a marker for liver injury.
Alanine aminotransferase (ALT) is an enzyme found mainly in the liver and it is measured to determine whether the liver is damaged or diseased in a variety of human conditions, especially hepatitis and cirrhosis. The level of its release into the bloodstream linearly correlates with the severity of the liver injury and thus it can be used both for diagnosis purposes and to monitor the efficiency of a treatment. The time course of plasma ALT release after ConA injection is known from the literature to peak at eight hours. […] We used this assay to preliminarily assess the temporal window of PRS-211,092 efficiency and the compound was administered either 30 or 60 minutes after induction of injury. […] FK-506 was used as positive control and at the dose of 1 mg/kg, it reduced ALT concentrations by 92%, 93% and 86% when injected at the three previously described time points. Thus, the test compound has an important beneficial impact on liver injury as assessed by the reduction of ALT, a robust marker of the liver injury. […]

The subject of assay [3] is haptoglobin gene expression. The assay can be described thus: Haptoglobin liver gene expression (acute phase response), ConA model. The assay is classed as in vivo, mice. The following applies: 1 mg/kg, on average at both time points of four and eight hours. Here is the method:
(§2) II reverse transcriptase (Life Technologies).
as §1
(§3) The acute phase response is an innate body defense seen during acute inflammation, infection and trauma, which involves the altered production of certain blood proteins termed acute phase proteins (APPs). As previously stated activated macrophages and other leukocytes release pro-inflammatory cytokines such as TNF-α, IL-1 and IL-6. These cytokines in turn stimulate hepatocytes to synthesize and secrete acute phase proteins such as C-reactive protein (CRP), mannose-binding lectin (MBL), haptoglobin and serum amyloid A (SAA). Measurement of acute phase protein level is used to monitor the severity of the innate response and thus predict the prognosis of the disease. […]

Another assay has as its system SAA-3 gene expression. Briefly: SAA-3 liver gene expression (acute phase response), ConA model. To be noted: 1 mg/kg, on average at both time points of four and eight hours. The assay is classed as in vivo, mice. The procedure:
as §2, §1, §3

The next assay concerns the target recombinant COX-2 (Homo sapiens, UniProt P35354). Briefly: In vitro enzymatic activity of recombinant COX-2 (PGF2α EIA). Type of assay: biochemical.

SMILES strings stand for the structures.

Sequence of recombinant COX-2 (P35354 18-604): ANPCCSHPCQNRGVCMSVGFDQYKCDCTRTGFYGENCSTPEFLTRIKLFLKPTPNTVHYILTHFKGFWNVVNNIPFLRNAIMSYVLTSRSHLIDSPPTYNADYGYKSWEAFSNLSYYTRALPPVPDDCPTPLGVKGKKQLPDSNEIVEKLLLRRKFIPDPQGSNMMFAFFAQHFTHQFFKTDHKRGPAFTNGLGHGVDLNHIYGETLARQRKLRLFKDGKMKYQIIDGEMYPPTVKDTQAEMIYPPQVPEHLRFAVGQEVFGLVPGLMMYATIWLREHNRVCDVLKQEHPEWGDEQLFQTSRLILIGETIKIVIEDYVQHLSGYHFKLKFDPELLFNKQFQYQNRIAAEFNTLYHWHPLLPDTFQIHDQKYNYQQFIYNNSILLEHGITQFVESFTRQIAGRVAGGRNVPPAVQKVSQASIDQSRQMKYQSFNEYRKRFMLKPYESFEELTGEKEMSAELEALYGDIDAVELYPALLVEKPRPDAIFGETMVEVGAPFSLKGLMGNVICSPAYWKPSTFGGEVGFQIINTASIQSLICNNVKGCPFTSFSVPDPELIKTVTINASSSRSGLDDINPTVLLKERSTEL

What is called IC50 is the concentration that gives 50% inhibition. Lower therefore signals greater potency. As for `Cc1ccc(-c2cc(C(F)(F)F)nn2-c2ccc(S(N)(=O)=O)cc2)cc1` [Celecoxib], the “Reduction in paw thickness” value in assay [1] (0.1 mg/kg i.p.) is listed as 24%; in assay [1] (0.25 mg/kg i.p.) it was 28%; in assay [1] (0.5 mg/kg i.p.) it was 33%. This compound also displayed a 50% inhibitory concentration (IC50) in the assay with PGE2 secretion of 5 nM.

On to `C[C@@H]1C[C@H]2[C@@H]3CCC4=CC(=O)C=C[C@]4(C)[C@@]3(F)[C@@H](O)C[C@]2(C)[C@@]1(O)C(=O)CO` [Dexamethasone], for which the results for the “Reduction in paw thickness” value in assay [1] (0.1 mg/kg i.p.), in assay [1] (0.25 mg/kg i.p.) and in assay [1] (0.5 mg/kg i.p.) were 26%, 31% and 33%, respectively.

Regarding `C=CC[C@@H]1/C=C(\C)C[C@H](C)C[C@H](OC)[C@H]2O[C@@](O)(C(=O)C(=O)N3CCCC[C@H]3C(=O)O[C@H](/C(C)=C/[C@@H]3CC[C@@H](O)[C@H](OC)C3)[C@H](C)[C@@H](O)CC1=O)[C@H](C)C[C@@H]2OC` [FK-506], the “Reduction of ALT concentrations” value in assay [2] (administered 30 minutes after induction of injury) came out at 93%; in assay [2] (administered 30 minutes before ConA, 8 hours after ConA), 92%; in assay [2] (administered 60 minutes after induction of injury), 86%. For the same compound, the “Reduction in gene expression of haptoglobin” value in assay [3] is on record as 78%. For the same compound, the “Reduction in gene expression of SAA-3” value in the assay with SAA-3 gene expression is given as 97%.

For the compound `CS(=O)(=O)Nc1ccc([N+](=O)[O-])cc1OC1CCCCC1` [NS-398], the IC50 with PGE2 secretion amounted to 100 nM.

With `CS(=O)(=O)c1ccc(C2=C(c3ccccc3)C(=O)OC2)cc1` [Rofecoxib, reference compound], at recombinant COX-2, the “Inhibition of COX-2 enzymatic activity” value is “strongly inhibited”. Moreover, the IC50 in the assay on PGE2 secretion was 100 nM.
